From US10669284B2, “Fused thiazolopyrimidine derivatives as MNKS inhibitors” (LIFEARC, priority 2015, dated 2020) come the findings set out here.

As a reminder, the IC50 is the concentration that inhibits the measured activity by half.

Molecules are shown by their SMILES. Like-named read-outs stand apart in the source and are kept apart here.

The target in one test is T1, Full-length human MNK1 (Homo sapiens, UniProt Q9BUB5, T385D).
T1 construct: GST (N); purchased Carna Biosciences 02-145; host or cells: baculovirus expression system
T1 sequence (Q9BUB5 1-424 isoform Q9BUB5-2 T344D): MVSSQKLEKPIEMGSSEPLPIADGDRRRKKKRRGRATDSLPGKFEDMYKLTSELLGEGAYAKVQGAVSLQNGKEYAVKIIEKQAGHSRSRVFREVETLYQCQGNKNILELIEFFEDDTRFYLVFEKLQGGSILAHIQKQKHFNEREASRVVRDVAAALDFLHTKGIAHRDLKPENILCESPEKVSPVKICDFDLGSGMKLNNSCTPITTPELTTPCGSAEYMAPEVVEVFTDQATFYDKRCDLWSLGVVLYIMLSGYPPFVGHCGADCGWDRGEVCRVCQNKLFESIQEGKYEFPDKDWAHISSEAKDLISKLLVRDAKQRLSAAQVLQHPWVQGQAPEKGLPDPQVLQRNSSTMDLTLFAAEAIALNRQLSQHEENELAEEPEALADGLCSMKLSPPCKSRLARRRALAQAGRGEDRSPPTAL
Kind of test: MNK1 biochemical IC50 assay (Caliper Mobility Shift Assay). The source says: (§1) The phosphorylated peptide product and unphosphorylated peptide substrate were detected using a Caliper Mobility Shift Assay using the Caliper LabChip EZ Reader II.
(§2) The Caliper Mobility Shift Assay technology is based on the utilisation of a microfluidic chip to measure the conversion of a fluorescent non-phosphorylated peptide substrate to phosphorylated product by electrophoresis separation of substrate and product and detection via Laser-induced fluorescence. The LabChip EZ Reader software calculates the relative heights of substrate and product peaks and reports the peak ratio (Product peak(P) divided by the sum of Product peak(P) and Substrate peak(S)). The percent-conversion is calculated as 100×[(P/(P+S)]. All assays were set up to run in the linear phase with a maximum of 10 percent substrate conversion.
(§3) These were N-terminal GST fusion proteins expressed in baculovirus expression system and purified by glutathione sepharose affinity chromatography. […] All other assay reagents were sourced from Sigma.
Compounds were serially diluted in DMSO to generate a 10-point half log dilution curve with a final top concentration of 100 uM in the assay. […] Compounds were pre-incubated with enzyme and peptide in reaction buffer for 30 mins prior to addition of ATP to initiate the reaction. Final assay concentrations were 3 nM MNK1, 2 uM peptide substrate, 50 uM ATP, 50 mM Hepes pH 7.0, 0.01% BSA, 10 mM MgCl2, 1 mM dithiothrietol.
(§4) The assay incubation times were adjusted depending on the concentration of ATP used. Assays were performed at low (50 uM) and high (1 mM) ATP. The low ATP values were selected to run at Km conditions for the standard assay to allow relative potencies to be compared across other kinases. The high ATP concentration was selected as representative of cellular ATP concentrations, and for an indication of ATP competition, where a significant shift (greater than half log) in apparent potency would be expected compared to Km conditions. All IC50 values reported are the average of at least two independent experiments.

The test system of test [1] is phosphorylation of eIF4E at ser209 in MV4.11 cell line. Nature of the test: MNK cellular activity phospho-eIF4E detection assay (Alphascreen Surefire). The test is classed as cell-based. The note with it: Homo sapiens. As to the method: The assay detection is based on the formation of sandwich antibody complexes coupled to donor and acceptor beads. Excitation at 680 nm causes the transfer of a singlet oxygen species between donor and acceptor beads when they are in close proximity by binding to the analyte ([…]), which results in the emission of light at 520-620 nm.
Cells were then lysed and the Alphascreen Surefire protocol followed according to manufacturer's recommendations. 8 ul Acceptor beads (1:50 dilution in kit activation buffer) was added to lysate, shaken 150 rpm for 2 min and incubated for 1.5 hr at room temperature. 3 ul Donor beads (1:20 dilution in kit dilution buffer) were then added, shaken 150 rpm for 2 min and incubated for a further 1.5 hr at room temperature after which the plates were read on Pherastar FS using Alphascreen optic module.
Data were normalised relative to untreated DMSO only controls and curves repeated in duplicate within experiments. Data reported are averages of at least 2 independent experiments.
(In general: In Alpha technology, singlet oxygen from a donor bead excites a nearby acceptor bead.)

The target in another test is T2, Full-length human MNK2 (Homo sapiens, UniProt Q9HBH9, T379D).
T2 construct: GST (N); purchased Carna Biosciences 02-146; host or cells: baculovirus expression system
T2 sequence (Q9HBH9 whole entry T379D): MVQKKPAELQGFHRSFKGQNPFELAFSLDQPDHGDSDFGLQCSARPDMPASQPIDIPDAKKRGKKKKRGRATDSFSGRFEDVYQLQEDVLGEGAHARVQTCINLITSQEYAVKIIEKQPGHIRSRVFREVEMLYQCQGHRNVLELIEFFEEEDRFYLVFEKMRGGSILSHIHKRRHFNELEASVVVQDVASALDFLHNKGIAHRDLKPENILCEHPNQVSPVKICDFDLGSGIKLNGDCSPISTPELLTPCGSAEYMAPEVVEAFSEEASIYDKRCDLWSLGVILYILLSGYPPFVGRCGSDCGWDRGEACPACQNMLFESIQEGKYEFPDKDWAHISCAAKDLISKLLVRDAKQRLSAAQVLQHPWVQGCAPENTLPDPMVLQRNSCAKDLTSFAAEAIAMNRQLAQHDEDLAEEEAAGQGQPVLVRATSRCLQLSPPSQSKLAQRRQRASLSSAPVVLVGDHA
Kind of test: MNK2 biochemical IC50 assay (Caliper Mobility Shift Assay).
Excerpt: as §1, §2, §3, §4
Reactions were performed as above using 10 nM MNK2 in the assay. Standard assays contained 50 uM ATP and high concentration ATP assays contained 1 mM ATP. […] All other conditions were the same.

Where [2] appears, read: read-out: P(IC50) MNK1 (converted).
Setting [3] is: MV4.11 cell line, phospho-eIF4E (ser209) Alphascreen Surefire, read-out: P(IC50) elF4E (converted).
Where [4] appears, read: read-out: P(IC50) MNK2 (converted).

For `O=C(NCCN1CCNCC1)c1nc2c(N3CCc4cc(F)ccc43)ncnc2s1` [Example 79, 7-(5-fluoroindolin-1-yl)-N-(2-piperazin-1-ylethyl)thiazolo[5,4-d]pyrimidine-2-carboxamide], the IC50 was 3.16 nM at Full-length human MNK1 (setting [2]), 10 nM in test [1] (setting [3]) and 3.16 nM at Full-length human MNK2 (setting [4]).

Take `C[C@@H]1Cc2ccccc2N1c1ncnc2sc(C(=O)NC3CCOCC3)nc12` [Example 130, 7-[(2R)-2-methylindolin-1-yl]-N-tetrahydropyran-4-yl-thiazolo[5,4-d]pyrimidine-2-carboxamide]: the IC50 is 50.1 nM at Full-length human MNK1 (setting [2]), 50.1 nM in test [1] (setting [3]) and 39.8 nM at Full-length human MNK2 (setting [4]).

`CC(C)Oc1cc(F)ccc1Nc1ncnc2sc(C(=O)NCC3CCN(C)CC3)nc12` [Example 36, 7-{[4-fluoro-2-(propan-2-yloxy)phenyl]amino}-N-[(1-methylpiperidin-4-yl)methyl][1,3]thiazolo[5,4-d]pyrimidine-2-carboxamide]: the IC50 (on Full-length human MNK1 (setting [2]); in test [1] (setting [3]); on Full-length human MNK2 (setting [4])) was 50.1 nM in each case.

On to `CC(=O)Nc1ccc2c(c1)CCN2c1ncnc2sc(C(=O)NC3CCN(C)CC3)nc12` [Example 46, 7-[5-(Acetylamino)-2,3-dihydro-1H-indol-1-yl]-N-(1-methylpiperidin-4-yl)[1,3]thiazolo[5,4-d]pyrimidine-2-carboxamide], for which the IC50 at Full-length human MNK1 (setting [2]) was 501 nM; in test [1] (setting [3]), 100 nM; at Full-length human MNK2 (setting [4]), 200 nM.

Turning to `NCCC1CN(c2ncnc3sc(C(=O)NC4CCOCC4)nc23)c2ccccc21` (stereo not shown) [Example 111, 7-[3-(2-aminoethyl)indolin-1-yl]-N-tetrahydropyran-4-yl-thiazolo[5,4-d]pyrimidine-2-carboxamide], the IC50 was 5.01 nM on Full-length human MNK1 (setting [2]), 63.1 nM in test [1] (setting [3]) and 6.31 nM at Full-length human MNK2 (setting [4]).

Regarding `CC1(CCO)CN(c2ncnc3sc(C(=O)NC4CCOCC4)nc23)c2ccccc21` (stereo not shown) [Example 113, 7-[3-(2-hydroxyethyl)-3-methyl-indolin-1-yl]-N-tetrahydropyran-4-yl-thiazolo[5,4-d]pyrimidine-2-carboxamide], the IC50 (on Full-length human MNK1 (setting [2]); in test [1] (setting [3]); at Full-length human MNK2 (setting [4])) was 39.8 nM in each case.

Regarding `CC1Cc2ccccc2N1c1ncnc2sc(C(=O)NC3CCOCC3)nc12` (stereo not shown) [Example 122, 7-(2-Methylindolin-1-yl)-N-tetrahydropyran-4-yl-thiazolo[5,4-d]pyrimidine-2-carboxamide], the IC50 is 39.8 nM at Full-length human MNK1 (setting [2]), 50.1 nM in test [1] (setting [3]) and 31.6 nM on Full-length human MNK2 (setting [4]).

For the compound `O=C(NC1CCOC1)c1nc2c(N3CCc4cc(F)ccc43)ncnc2s1` (stereo not shown) [Example 77, 7-(5-fluoroindolin-1-yl)-N-tetrahydrofuran-3-yl-thiazolo[5,4-d]pyrimidine-2-carboxamide], the values for the IC50 (at Full-length human MNK1 (setting [2]); in test [1] (setting [3]); on Full-length human MNK2 (setting [4])) were 2 nM, 3.98 nM and 2 nM, respectively.

For the compound `O=C(NC1CCOCC1)c1nc2c(N3CC(CCO)c4ccccc43)ncnc2s1` (stereo not shown) [Example 110, 7-[3-(2-hydroxyethyl)indolin-1-yl]-N-tetrahydropyran-4-yl-thiazolo[5,4-d]pyrimidine-2-carboxamide], the IC50 (at Full-length human MNK1 (setting [2]); in test [1] (setting [3]); at Full-length human MNK2 (setting [4])) was 10 nM each time.

`O=C(NC1CCOCC1)c1nc2c(N3CCc4ncccc43)ncnc2s1` [Example 44, 7-(2,3-Dihydro-1H-pyrrolo[3,2-b]pyridin-1-yl)-N-(tetrahydro-2H-pyran-4-yl)[1,3]thiazolo[5,4-d]pyrimidine-2-carboxamide]: the IC50 is 158 nM on Full-length human MNK1 (setting [2]), 100 nM in test [1] (setting [3]) and 100 nM on Full-length human MNK2 (setting [4]).

On to `O=C(NC1CCOCC1)c1nc2c(N3CC4(CCOCC4)c4ccccc43)ncnc2s1` [Example 108, 7-spiro[indoline-3,4′-tetrahydropyran]-1-yl-N-tetrahydropyran-4-yl-thiazolo[5,4-d]pyrimidine-2-carboxamide], for which the concentration for half-maximal inhibition (IC50) on Full-length human MNK1 (setting [2]) was 63.1 nM; in test [1] (setting [3]) it was 31.6 nM; on Full-length human MNK2 (setting [4]), 39.8 nM.

With `CC(C)Oc1cc(F)ccc1Nc1ncnc2sc(C(=O)NCCC3CCN(C)CC3)nc12` [Example 37, 7-{[4-fluoro-2-(propan-2-yloxy)phenyl]amino}-N-[2-(1-methylpiperidin-4-yl)ethyl][1,3]thiazolo[5,4-d]pyrimidine-2-carboxamide], the values for the IC50 (at Full-length human MNK1 (setting [2]); in test [1] (setting [3]); on Full-length human MNK2 (setting [4])) were 39.8 nM, 25.1 nM and 39.8 nM, respectively.

With `C[C@H]1Cc2ccccc2N1c1ncnc2sc(C(=O)NC3CCNCC3)nc12` [Example 132, 7-[(2S)-2-methylindolin-1-yl]-N-(4-piperidyl) thiazolo[5,4-d]pyrimidine-2-carboxamide], the values for the IC50 (at Full-length human MNK1 (setting [2]); in test [1] (setting [3]); on Full-length human MNK2 (setting [4])) were 20 nM, 25.1 nM and 15.8 nM, respectively.

As for `CC1(C)CN(c2ncnc3sc(C(=O)NCC4CCNCC4)nc23)c2ccccc21` [Example 161], the IC50 is 3.16 nM at Full-length human MNK1 (setting [2]); 3.16 nM in test [1] (MV4-11, read-out: P(IC50) elF4E); 2.51 nM at Full-length human MNK2.

`CC1(C)CN(c2ncnc3sc(C(=O)NC4CCNCC4)nc23)c2ccccc21` [Example 162]: the IC50 on Full-length human MNK1 (setting [2]) was 6.31 nM; in test [1] (setting [3]) it was 7.94 nM; on Full-length human MNK2 (setting [4]), 5.01 nM.

Consider `CN(C)CCCNC(=O)c1nc2c(N3CCc4ccccc43)ncnc2s1` [Example 27, N-[3-(Dimethylamino)propyl]-7-indolin-1-yl-thiazolo[5,4-d]pyrimidine-2-carboxamide], for which the IC50 was 10 nM at Full-length human MNK1 (setting [2]) and 7.94 nM on Full-length human MNK2.

Regarding `O=C(NCC1CCNCC1)c1nc2c(Nc3ccc(F)cc3OC(F)(F)F)ncnc2s1` [Example 59, 7-[4-fluoro-2-(trifluoromethoxy)anilino]-N-(4-piperidylmethyl)thiazolo[5,4-d]pyrimidine-2-carboxamide], the IC50 was 631 nM in test [1] (setting [3]) and 1580 nM on Full-length human MNK2 (setting [4]).

As for `CC(C)Oc1ccc2c(c1)CCN2c1ncnc2sc(C(=O)NC3CCOCC3)nc12` [Example 116, 7-(5-Isopropoxyindolin-1-yl)-N-tetrahydropyran-4-yl-thiazolo[5,4-d]pyrimidine-2-carboxamide], the figures for the IC50 (in test [1] (setting [3]); on Full-length human MNK2 (setting [4])) were 501 nM and 631 nM, respectively.

Consider `CC(C)Oc1cc(F)ccc1Nc1ncnc2sc(C(=O)NCCN3CCNCC3)nc12` [Example 9, 7-(4-fluoro-2-isopropoxy-anilino)-N-(2-piperazin-1-ylethyl)thiazolo[5,4-d]pyrimidine-2-carboxamide], for which the IC50 at Full-length human MNK1 (setting [2]) is 50.1 nM; at Full-length human MNK2, 31.6 nM.

`O=C(NCC1CCNCC1)c1nc2c(N3CCc4cc(Cl)ccc43)ncnc2s1` [Example 168, 7-(5-Chloroindolin-1-yl)-N-(4-piperidylmethyl)thiazolo[5,4-d]pyrimidine-2-carboxamide]: the IC50 at Full-length human MNK1 (setting [2]) and at Full-length human MNK2 (setting [4]) was 3.16 nM in each case.

For `O=C(NCCCN1CCCC1)c1nc2c(N3CCc4cc(F)ccc43)ncnc2s1` [Example 68], the IC50 at Full-length human MNK1 and on Full-length human MNK2 was 2 nM throughout.

On to `CO[C@H]1CCCC[C@@H]1Oc1cc(F)ccc1Nc1ncnc2sc(C(=O)NCCCN(C)C)nc12` [Example 21], for which the IC50 in test [1] (setting [3]) is 316 nM; at Full-length human MNK2 (setting [4]) it was 1260 nM.

For `CN(C)CCCNC(=O)c1nc2c(N3CC(C)(C)c4ccccc43)ncnc2s1` [Example 25, N-[3-(Dimethylamino)propyl]-7-(3,3-dimethylindolin-1-yl)thiazolo[5,4-d]pyrimidine-2-carboxamide], the results for the IC50 on Full-length human MNK1 (setting [2]) and on Full-length human MNK2 were 6.31 nM and 3.98 nM, respectively.
